Consider 14 molecules from patent US10323045B2, “Thienopyrimidine derivatives as NIK inhibitors” (Janssen Pharmaceutica NV, priority 2014, dated 2019).

The subject of one test is L-363 cells. Kind of test: Antiproliferative activity on L-363 cells (CellTiter-Glo). The class given is cell-based. To be noted: Homo sapiens, 72 hr of treatment, averaged values. Here is the method: (§1) Determination of Antiproliferative Activity on LP-1, L-363 and JJN-3 Cells
(§2) All compounds tested were dissolved in DMSO and further dilutions were made in culture medium. Final DMSO concentration was 0.3% (v/v) in cell proliferation assays.
(§3) Viability was assessed using CellTiter-Glo cell viability assay kit (Promega). The human LP-1, L-363 and JJN-3 cells (DSMZ) were cultured in RPMI 1640 medium supplemented with 2 mM L-glutamine, and 10% fetal calf serum (PAA). Cells were routinely kept as suspension cells at 37° C. in a humidified 5% C02 atmosphere. Cells were passaged at a seeding density of 0.2×10^6/ml twice a week. Cells were seeded in black tissue culture treated 96-well plates (Perkin Elmer). Densities used for plating ranged from 2,000 to 6,000 cells per well in a total volume of 75 μl medium. After twenty four hours, drugs and/or solvents were added (25 μl) to a final volume of 100 μl. Following 72 hr of treatment plates were removed from the incubator and allowed to equilibrate to room temperature for approx 10 min. 100 μl CellTiter-Glo reagent was added to each well that was then covered (Perkin Elmer Topseal) and shaken on plate shaker for 10 min. Luminescence was measured on a HTS Topcount (Perkin Elmer). Within an experiment, the results for each treatment were the mean of 2 replicate wells.
(§4) For initial screening purposes, compounds were tested using a 9 point dilution curve (serial 1:3 dilutions). For each experiment, controls (containing no drug) and a blank incubation (containing cells read at the time of compound addition) were run in parallel. The blank value was subtracted from all control and sample values. For each sample, the mean value for cell growth (in relative light units) was expressed as a percentage of the mean value for cell growth of the control.
A general note: In ATP-based viability assays light output follows the ATP content of the culture.

The test system of the next test is LP-1 cells. The experiment in a line: Antiproliferative activity on LP-1 cells (CellTiter-Glo). The class given is cell-based. To be noted: Homo sapiens, 72 hr of treatment, averaged values. Here is the method: as §1, §2, §3, §4
Test [1] has as its target Recombinant Human NF-kappaB-inducing Kinase (NIK/MAP3K14) (Homo sapiens, UniProt Q99558). The experiment in a line: Inhibition of auto-phosphorylation of recombinant human NIK/MAP3K14 (AlphaScreen). To be noted: GST-tagged NIK/MAP3K14 0.2 nM, 25 microM ATP, 1 h at 25° C.; averaged over all measurements on all batches; read-out: Alpha-Screen IC50. The class given is biochemical. Here is the method: Inhibition of Auto-phosphorylation of Recombinant Human NF-kappaB-inducing Kinase (NIK/MAP3K14) Activity (AlphaScreen®)
NIK/MAP3K14 auto-phosphorylation activity was measured using the AlphaScreen® (αscreen) format (Perkin Elmer). All compounds tested were dissolved in dimethyl sulfoxide (DMSO) and further dilutions were made in assay buffer. Final DMSO concentration was 1% (v/v) in assays. Assay buffer was 50 mM Tris pH 7.5 containing 1 mM EGTA (ethylene glycol tetraacetic acid), 1 mM DTT (dithiothreitol), 0.1 mM Na3VO4, 5 mM MgCl2, 0.01% Tween® 20. Assays were carried out in 384 well Alphaplates (Perkin Elmer). Incubations consisted of compound, 25 microM Adenosine-5′-triphosphate (ATP), and 0.2 nM NIK/MAP3K14. Incubations were initiated by addition of GST-tagged NIK/MAP3K14 enzyme, carried out for 1 h at 25° C. and terminated by addition of stop buffer containing anti-phospho-IKK Ser176/180 antibody. Protein A Acceptor and Glutathione-Donor beads were added before reading using an EnVision® Multilabel Plate Reader (Perkin Elmer). Signal obtained in the wells containing blank samples was subtracted from all other wells and IC50's were determined by fitting a sigmoidal curve to % inhibition of control versus Log10 compound concentration.
Background: Bead proximity is the source of the signal in Alpha formats.

Another test deals with JJN-3 cells. The experiment in a line: Antiproliferative activity on JJN-3 cells (CellTiter-Glo). The class given is cell-based. To be noted: Homo sapiens, 72 hr of treatment, averaged values. Here is the method: as §1, §2, §3, §4
In test [2] the test system is P-IKKα levels in L363 cells. The experiment in a line: Effect of compounds on P-IKKα levels in L363 cells. To be noted: Homo sapiens, L-363; L363 cells with BAFF, 2 hr treatment, P-IKKα by sandwich immuno-assay (Mesoscale); averaged values; read-out: IKKα Cellular IC50. The class given is cell-based. Here is the method: Effect of Compounds on P-IKKα Levels in L363 Cells
All compounds tested were dissolved in DMSO and further dilutions were made in culture medium. Final DMSO concentration was 1% (v/v) in cell assays. The human L363 cells (ATCC) were cultured in RPMI 1640 medium supplemented with GlutaMax and 10% fetal calf serum (PAA). Cells were routinely maintained at densities of 0.2×10^6 cells per ml-1×10^6 cells per ml at 37° C. in a humidified 5% C02 atmosphere. Cells were passaged twice a week splitting back to obtain the low density. Cells were seeded in 96 well plates (Nunc 167008) at 2×10^6 per ml media in a volume of 75 μl per well plus 25 μl 1 μg/ml recombinant human B-cell activating factor (BAFF/BLyS/TNFSF13B). Seeded cells were incubated at 37° C. in a humidified 5% CO2 atmosphere for 24 hr. Drugs and/or solvents were added (20 μl) to a final volume of 120 μl. Following 2 hr treatment plates were removed from the incubator and cell lysis was achieved by the addition of 30 μl 5× lysis buffer followed by shaking on a plate shaker at 4° C. for 10 min. At the end of this incubation lysed cells were centrifuged at 800×g for 20 min at 4° C. and the lysate was assessed for P-IKKα levels by sandwich immuno-assay carried out in anti-rabbit antibody coated Mesoscale plates. Within an experiment, the results for each treatment were the mean of 2 replicate wells.
For initial screening purposes, compounds were tested using an 8 point dilution curve (serial 1:3 dilutions). For each experiment, controls (containing MG132 and BAFF but no test drug) and a blank incubation (containing MG132 and BAFF and 10 μM ADS 125117, a test concentration known to give full inhibition) were run in parallel. The blank incubation value was subtracted from all control and sample values. To determine the IC50 a sigmoidal curve was fitted to the plot of % inhibition of control P-IKKα levels versus Log10 compound concentration.

Chain of Recombinant Human NF-kappaB-inducing Kinase (NIK/MAP3K14) (Q99558 whole entry): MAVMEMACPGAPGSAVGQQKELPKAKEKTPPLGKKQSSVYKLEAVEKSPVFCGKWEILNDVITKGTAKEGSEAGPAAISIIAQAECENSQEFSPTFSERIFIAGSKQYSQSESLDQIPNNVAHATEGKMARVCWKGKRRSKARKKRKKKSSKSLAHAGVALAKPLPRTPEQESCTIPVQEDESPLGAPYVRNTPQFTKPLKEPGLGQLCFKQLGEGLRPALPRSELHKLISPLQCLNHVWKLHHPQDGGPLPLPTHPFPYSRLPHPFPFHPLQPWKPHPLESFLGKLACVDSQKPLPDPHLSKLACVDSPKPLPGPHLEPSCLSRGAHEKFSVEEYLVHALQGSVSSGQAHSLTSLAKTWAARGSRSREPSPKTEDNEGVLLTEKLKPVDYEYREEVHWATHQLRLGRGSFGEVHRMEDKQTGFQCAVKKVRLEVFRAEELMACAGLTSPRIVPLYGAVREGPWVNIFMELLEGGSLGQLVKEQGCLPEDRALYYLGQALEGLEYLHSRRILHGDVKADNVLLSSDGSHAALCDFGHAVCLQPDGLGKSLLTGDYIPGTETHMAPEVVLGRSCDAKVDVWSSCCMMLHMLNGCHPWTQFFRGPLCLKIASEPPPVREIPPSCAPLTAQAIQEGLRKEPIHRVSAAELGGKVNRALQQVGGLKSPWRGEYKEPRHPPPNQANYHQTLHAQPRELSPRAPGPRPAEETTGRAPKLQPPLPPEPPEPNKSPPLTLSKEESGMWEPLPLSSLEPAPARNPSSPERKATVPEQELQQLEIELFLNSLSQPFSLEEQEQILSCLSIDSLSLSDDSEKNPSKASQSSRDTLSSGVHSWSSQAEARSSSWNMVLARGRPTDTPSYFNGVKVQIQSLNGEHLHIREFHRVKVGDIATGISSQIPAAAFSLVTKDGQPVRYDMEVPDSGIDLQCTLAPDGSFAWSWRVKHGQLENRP

`CC(C)c1cn(-c2nc(N)nc3ccsc23)c2cc(C#CC(C)(C)O)ncc12` [Compound 4]: the concentration for a half-maximal effect (EC50) (as a rule, the midpoint of the concentration-response curve) turned out to be 1580 nM in the test on L-363 cells, 3130 nM in the test with LP-1 cells and 1740 nM in the test with JJN-3 cells. In addition, the IC50 (usually the point on the concentration scale where inhibition reaches its midpoint) in test [1] amounted to 26 nM.
As to `CC(C)(O)C#Cc1cc2c(cn1)c(CCC(C)(C)O)cn2-c1nc(N)nc2ccsc12` [Compound 2], the EC50 with L-363 cells came out at 2800 nM; in the test on LP-1 cells, 10300 nM; with JJN-3 cells, 1470 nM. Besides, the IC50 in test [1] was found to be 9 nM; in test [2], 339 nM.
Take `COCCCn1cc(-c2nc(N)nc3ccsc23)c2cc(C#CC(C)(C)O)ncc21` [Compound 5]: the EC50 in the test with L-363 cells came out at 395 nM; in the test on LP-1 cells, 1680 nM; with JJN-3 cells it was 299 nM. Further, the results for the IC50 in test [1] and in test [2] were 19 nM and 64 nM, respectively.
As for `[2H]C([2H])([2H])C(O)(C#Cc1cc2c(-c3nc(N)nc4ccsc34)cn(C3CCN(CC)C3)c2cn1)C([2H])([2H])[2H]` (centres unmarked) [Compound 14], the EC50 in the test with L-363 cells was determined as 122 nM; in the test with LP-1 cells, 655 nM; in the test with JJN-3 cells, 145 nM. Also, the IC50 in test [1] stood at 38 nM.
`CC(C)(O)C#Cc1cc2c(ccn2-c2nc(N)nc3ccsc23)cn1` [Compound 1]: the concentration for a half-maximal effect (EC50) with L-363 cells was determined as 979 nM; in the test on LP-1 cells it was 2220 nM; with JJN-3 cells, 764 nM. Also, the figures for the IC50 in test [1] and in test [2] were 15 nM and 104 nM, respectively.
For the molecule `[2H]C([2H])([2H])C(O)(C#Cc1cc2c(-c3nc(N)nc4ccsc34)cn(C3CN(C4CC4)C3)c2cn1)C([2H])([2H])[2H]` [Compound 10], the EC50 is 610 nM with L-363 cells, 1480 nM in the test with LP-1 cells and 494 nM with JJN-3 cells. For the same molecule, in test [1], the IC50 stood at 52 nM.
Regarding `CC(O)(C#Cc1cc2c(-c3nc(N)nc4ccsc34)cn(C3CN(C4CC4)C3)c2cn1)C1CC1` (single isomer, unassigned) [Compound 11], the EC50 was 461 nM in the test on L-363 cells, 918 nM with LP-1 cells and 652 nM in the test with JJN-3 cells. In test [1], the half-maximal inhibitory concentration (IC50) came out at 26 nM.
`COCCCc1cn(-c2nc(N)nc3ccsc23)c2cc(C#CC(C)(C)O)ncc12` [Compound 6]: the EC50 came out at 1040 nM with L-363 cells, 3430 nM in the test on LP-1 cells and 580 nM in the test with JJN-3 cells. Moreover, the IC50 in test [1] came out at 15 nM.
As to `[2H]C([2H])([2H])C(O)(C#Cc1cc2c(-c3nc(N)nc4ccsc34)cn(C3CCCN(CC)C3)c2cn1)C([2H])([2H])[2H]` (centres unmarked) [Compound 12], the figures for the concentration for a half-maximal effect (EC50) in the test on L-363 cells, with LP-1 cells and with JJN-3 cells were 243 nM, 783 nM and 289 nM, respectively. For the same molecule, the 50% inhibitory concentration (IC50) in test [1] was 66 nM.
For the molecule `CC(O)(C#Cc1cc2c(-c3nc(N)nc4ccsc34)cn(C3CCN(C4CC4)CC3)c2cn1)C1CC1` (centres unmarked) [Compound 8], the EC50 in the test on L-363 cells was found to be 4 nM; with LP-1 cells, 38 nM; with JJN-3 cells, 16 nM. The IC50 in test [1] was found to be 112 nM.
Turning to `CC(C)(O)C#Cc1cc2c(-c3nc(N)nc4ccsc34)cn(C3COC3)c2cn1` [Compound 7], the concentration for a half-maximal effect (EC50) with L-363 cells is 696 nM; in the test on LP-1 cells, above 30000 nM; in the test with JJN-3 cells, 1060 nM. For the same molecule, the IC50 in test [1] turned out to be 32 nM.
As for `[2H]C([2H])([2H])C(O)(C#Cc1cc2c(-c3nc(N)nc4ccsc34)cn(C3CCN(C4CC4)CC3)c2cn1)C([2H])([2H])[2H]` [Compound 9], the half-maximal effective concentration (EC50) stood at 7 nM in the test with L-363 cells, 85 nM in the test on LP-1 cells and 24 nM with JJN-3 cells. Further, in test [1], the IC50 turned out to be 20 nM.
In the case of `CN1CCC(c2cn(-c3nc(N)nc4ccsc34)c3cc(C#CC(C)(C)O)ncc23)CC1` [Compound 3], the half-maximal effective concentration (EC50) turned out to be 258 nM in the test on L-363 cells, 3980 nM with LP-1 cells and 540 nM with JJN-3 cells. Also, the concentration for half-maximal inhibition (IC50) in test [1] amounted to 140 nM.
Take `[2H]C([2H])([2H])C(O)(C#Cc1cc2c(-c3nc(N)nc4ccsc34)cn(CC3CCCN3CC)c2cn1)C([2H])([2H])[2H]` (centres unmarked) [Compound 13]: the EC50 in the test with L-363 cells stood at 36 nM; in the test on LP-1 cells, 75 nM; in the test with JJN-3 cells, 60 nM. Also, the concentration for half-maximal inhibition (IC50) in test [1] came out at 58 nM.
